In PMC9124820, “In vitro evaluation of fenfluramine and norfenfluramine as victims of drug interactions” (Pharmacology Research & Perspectives, 2022):

Legend:
[1] = target: T1, BCRP (Homo sapiens, UniProt Q9UNQ0); test: Transporter substrate determination, bi-directional permeability in MDCKII-BCRP cells; type: in vitro ADME; design: host or cells: MDCKII; conditions: for substrate of the transporter: BCRP; for Maximum Ratio (net flux in transporter‐expressing cells to control cells): MDCKII‐BCRP, 0.1, 1, 10 µM, threshold ≥2‐fold suggests substrate
T1 sequence (Q9UNQ0 1-655): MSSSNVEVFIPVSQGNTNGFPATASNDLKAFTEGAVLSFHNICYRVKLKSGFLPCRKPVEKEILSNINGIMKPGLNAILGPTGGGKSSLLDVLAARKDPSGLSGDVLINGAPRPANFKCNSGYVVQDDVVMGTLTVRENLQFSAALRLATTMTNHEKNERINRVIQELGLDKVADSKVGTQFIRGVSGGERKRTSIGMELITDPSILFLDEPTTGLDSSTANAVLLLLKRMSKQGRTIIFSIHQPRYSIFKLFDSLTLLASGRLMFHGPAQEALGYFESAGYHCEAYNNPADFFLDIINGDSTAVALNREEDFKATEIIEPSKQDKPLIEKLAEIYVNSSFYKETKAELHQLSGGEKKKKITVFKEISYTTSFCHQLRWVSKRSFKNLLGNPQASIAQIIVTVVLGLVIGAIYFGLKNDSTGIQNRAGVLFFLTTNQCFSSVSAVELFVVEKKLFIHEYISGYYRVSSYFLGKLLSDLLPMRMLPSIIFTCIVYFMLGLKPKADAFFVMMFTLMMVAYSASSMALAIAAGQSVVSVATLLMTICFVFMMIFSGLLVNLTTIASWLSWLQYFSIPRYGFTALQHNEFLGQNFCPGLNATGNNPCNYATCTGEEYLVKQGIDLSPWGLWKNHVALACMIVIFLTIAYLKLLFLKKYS
Method: (§1) LC‐MS/MS analyses to assess metabolic stability and identify the transporter substrate were performed using an API 4000 QTRAP mass spectrometer (SCIEX, Framingham, MA) with electrospray ionization in positive mode. Chromatography was performed using an Atlantis dC18 analytical column (100 × 2.1 mm, 5 µm; Waters Corporation, Milford, MA). Mobile phases were 0.2% v/v formic acid in water and 0.2% v/v formic acid in acetonitrile. For metabolic stability experiments, FFA and metabolites were eluted at a flow rate of 0.6 mL/min, with a linear gradient of 20%−80% acetonitrile from 0.30−2.0 min. For transporter substrate experiments, the gradient was slightly modified to achieve suitable chromatography. The mass transitions monitored were 232.0 > 159.0 for FFA and 348.0 > 330.0 for 1ʹ‐OH‐midazolam‐d4 internal standard.
(§2) FFA and nFFA were evaluated as substrates of the transporters breast cancer resistance protein (BCRP), organic anion transporter (OAT)1, OAT3, organic cation transporter (OCT)2, MATE1, MATE2‐K, and P‐glycoprotein multidrug transporter (P‐gp; also known as MDR1 and ABCB1), according to published methods.[25], [26], [27], [28], [29] Madin‐Darby canine kidney (MDCKII)‐BCRP cells (Netherlands Cancer Institute, Amsterdam, Netherlands) or human embryonic kidney (HEK)293 cells transfected with other transporters (Sekisui Medical Co., Ltd., Tokyo, Japan) were used. Transporter‐transfected and control cells were incubated with FFA or nFFA (0.1, 1, or 10 μM), and the amount of FFA and nFFA accumulated in the cells was measured by LC‐MS/MS as described above. The accumulation of positive control substrates in the presence and absence of an inhibitor served as a positive control for transporter function. […] BCRP substrate determination was made by bi‐directional permeability across MDCKII‐BCRP and control cells cultured on 24‐well transwell plates. Incubation medium containing probe substrate was added. Ten minutes later, transepithelial electrical resistance (TEER) was recorded and cells were preincubated at 37 ± 2°C for 30−60 min before FFA or nFFA or positive control substrate with the solvent control or positive control inhibitor was added to the donor (apical) chamber. […] Samples containing FFA, nFFA, or probe substrate were mixed with internal standard and analyzed by LC‐MS/MS. […] An aliquot was added to 96‐well plate containing scintillation fluid that was analyzed by a MicroBeta^2 scintillation counter (Perkin Elmer, Waltham, MA). Protein concentration was determined by a bicinchoninic acid (BCA) protein assay according to the manufacturer’s protocol (Thermo Fisher Scientific, Waltham, MA). Non‐radiolabeled compounds were resuspended in a 50:50 v/v methanol:water solution containing internal standard and were analyzed by LC‐MS/MS. […]

[2] = target: T2, OCT2 (Homo sapiens, UniProt O15244); test: Transporter substrate determination, uptake in HEK293-OCT2 cells; type: in vitro ADME; conditions: for Maximum Ratio (uptake in transporter‐expressing cells to empty‐vector control cells): HEK293‐OCT2, 0.1, 1, 10 µM, threshold ≥2‐fold; for substrate of the transporter: OCT2
T2 construct: host or cells: HEK293
T2 sequence (O15244 1-555): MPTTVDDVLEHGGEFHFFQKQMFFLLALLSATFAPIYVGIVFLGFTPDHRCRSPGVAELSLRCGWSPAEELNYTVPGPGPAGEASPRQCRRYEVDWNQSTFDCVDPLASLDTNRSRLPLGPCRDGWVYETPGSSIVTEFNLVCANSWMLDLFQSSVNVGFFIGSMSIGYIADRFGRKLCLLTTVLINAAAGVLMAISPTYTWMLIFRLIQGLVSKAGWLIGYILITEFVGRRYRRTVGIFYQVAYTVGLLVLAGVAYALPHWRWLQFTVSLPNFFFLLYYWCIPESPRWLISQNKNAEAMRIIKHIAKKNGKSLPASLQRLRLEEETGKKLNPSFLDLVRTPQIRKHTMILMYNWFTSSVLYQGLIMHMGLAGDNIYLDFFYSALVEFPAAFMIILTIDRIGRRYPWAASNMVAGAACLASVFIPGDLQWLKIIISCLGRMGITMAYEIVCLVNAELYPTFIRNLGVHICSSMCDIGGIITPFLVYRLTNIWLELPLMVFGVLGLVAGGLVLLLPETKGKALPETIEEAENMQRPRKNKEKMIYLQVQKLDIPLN
Method: as §1, §2

| Structure (SMILES) | clearance accounted for in vivo (CYP inhibition by stiripentol/clobazam plus renal clearance) | maximum possible amount remaining for metabolism by MAO (human, in vivo, 0.1 mg/kg twice daily) [%] | substrate of the transporter [1] | Maximum Ratio (net flux in transporter‐expressing cells to control cells) [1] | Maximum Ratio (uptake in transporter‐expressing cells to empty‐vector control cells) [2] | substrate of the transporter [2] |
| --- | --- | --- | --- | --- | --- | --- |
| CCNC(C)Cc1cccc(C(F)(F)F)c1 (racemic) [FFA, (RS)‐ethyl (α‐methyl‐3‐trifluoromethylphenethyl)amine] | approximately 80% | ≤ 20 | not substrates | 1.51 | 1.09 | not substrates |
| CC(N)Cc1cccc(C(F)(F)F)c1.Cl (stereo not shown) [nFFA, 1‐(3‐(trifluoromethyl)phenyl)propan‐2‐amine hydrochloride] |  |  | not substrates | 1.42 | 1.16 | not substrates |
